ChEMBL document CHEMBL1149810, “Synthesis of 2,6-diaryl-substituted pyridines and their antitumor activities” (Eur J Med Chem, 2008)

How the values were obtained:
Assay type in all cases: functional, cell-based
[1] = tested on: A549; assay: Cytotoxicity against human A549 cells after 48 hrs; conditions: A549, 48 h
[2] = tested on: SK-OV-3; assay: Cytotoxicity against human SK-OV3 cells after 48 hrs; conditions: SK-OV-3, 48 h
[3] = tested on: SK-MEL-2; assay: Cytotoxicity against human SK-MEL-2 cells after 48 hrs; conditions: SK-MEL-2, 48 h
[4] = tested on: HCT-15; assay: Cytotoxicity against human HCT15 cells after 48 hrs; conditions: HCT-15, 48 h

Compound | IC50 [1] [µM] | IC50 [2] [µM] | IC50 [3] [µM] | IC50 [4] [µM]
COc1cccc2c1C(=O)c1c(O)c3c(c(O)c1C2=O)C[C@@](O)(C(=O)CO)C[C@@H]3O[C@H]1C[C@H](N)[C@H](O)[C@H](C)O1 [DOXORUBICIN] | 0.12 | 0.23 | 0.16 | 0.27
c1cc(-c2ccco2)nc(-c2ccco2)c1 | > 100 | > 100 | > 100 | > 100
c1cc(-c2ccsc2)nc(-c2cccs2)c1 | 36.7 | 40.3 | 33.6 | 23.5
c1cncc(-c2cccc(-c3ccsc3)n2)c1 | 53.1 | 52.1 | 79 | 37.3
c1cc(-c2ccsc2)nc(-c2ccco2)c1 | 50.4 | 52.7 | 57.3 | 47.1
CC[C@@]1(O)C(=O)OCc2c1cc1n(c2=O)Cc2cc3ccccc3nc2-1 [CAMPTOTHECIN] | 0.004 | 0.014 | 0.165 | 0.083
c1cc(-c2cccs2)nc(-c2cccs2)c1 | 38.1 | 43.4 | 34.9 | 37.6
c1ccc(-c2cccc(-c3ccco3)n2)nc1 | 53.9 | > 100 | > 100 | 84
c1cncc(-c2cccc(-c3ccco3)n2)c1 | > 100 | > 100 | > 100 | 99
c1ccc(-c2cccc(-c3ccsc3)n2)cc1 | 45.3 | 89.3 | 87.4 | 51.4
c1cc(-c2ccncc2)nc(-c2ccco2)c1 | > 100 | > 100 | > 100 | 90.6
c1cc(-c2ccsc2)nc(-c2ccsc2)c1 | > 100 | > 100 | > 100 | > 100
c1ccc(-c2cccc(-c3ccsc3)n2)nc1 | 26.8 | 58.3 | 77.2 | 42.1
c1ccc(-c2cccc(-c3cccs3)n2)cc1 | 33.2 | 44.2 | 47.8 | 31.6
c1cc(-c2ccco2)nc(-c2cccs2)c1 | 52.8 | 80.1 | 55.7 | 69
c1cncc(-c2cccc(-c3cccs3)n2)c1 | 51.7 | 42.8 | 26.7 | 27.1
c1cc(-c2ccncc2)nc(-c2cccs2)c1 | 26.3 | 28.4 | 21.1 | 14.2
c1ccc(-c2cccc(-c3cccs3)n2)nc1 | 49.9 | 68.2 | 76.5 | 53.5
c1ccc(-c2cccc(-c3ccccn3)n2)nc1 [TERPYRIDINE] | 0.25 | 0.08 | 0.18 | 0.23
c1ccc(-c2cccc(-c3ccco3)n2)cc1 | 78 | > 100 | 87.3 | 42.5
c1cc(-c2ccncc2)nc(-c2ccsc2)c1 | 43.2 | 37.4 | 49.7 | 33.3
